Experimental findings from PMC6264278, “Corydaline Inhibits Multiple Cytochrome P450 and UDP-Glucuronosyltransferase Enzyme Activities in Human Liver Microsomes” (Molecules, 2011) are described below.

One test has as its target T1, UGT1A9 (Homo sapiens, UniProt O60656).
T1 construct: using pooled human liver microsomes; tissue BD Gentest Co. H161; host or cells: pooled human liver microsomes
T1 sequence (O60656 26-530): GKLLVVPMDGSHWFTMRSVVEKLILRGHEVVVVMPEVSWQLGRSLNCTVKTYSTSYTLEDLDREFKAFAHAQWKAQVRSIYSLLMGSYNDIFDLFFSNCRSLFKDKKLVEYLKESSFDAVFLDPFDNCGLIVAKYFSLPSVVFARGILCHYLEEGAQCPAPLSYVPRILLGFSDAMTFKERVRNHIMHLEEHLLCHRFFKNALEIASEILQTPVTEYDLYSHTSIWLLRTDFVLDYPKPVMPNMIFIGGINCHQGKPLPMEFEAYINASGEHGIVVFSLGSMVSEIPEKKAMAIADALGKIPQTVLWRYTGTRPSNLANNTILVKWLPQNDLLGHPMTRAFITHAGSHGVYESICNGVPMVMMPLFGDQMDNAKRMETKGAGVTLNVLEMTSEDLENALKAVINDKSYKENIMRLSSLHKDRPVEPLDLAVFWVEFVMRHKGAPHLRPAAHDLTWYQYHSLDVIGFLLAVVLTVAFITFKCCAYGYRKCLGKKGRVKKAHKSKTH
The test can be described thus: UGT1A9 propofol glucuronidation inhibition in pooled human liver microsomes. In kind it is in vitro ADME. How it is done:
(§1) The inhibitory potencies (IC50 values) of corydaline were also determined with UGT assays in the presence and absence of corydaline (final concentrations of 1–1,000 μM with acetonitrile concentration less than 0.5% v/v) using pooled human liver microsomes. 17β-Estradiol 3-glucuronidation, trifluoperazine glucuronidation, propofol glucuronidation, and azidothymidine glucuronidation activities were determined as probe activities for UGT1A1, UGT1A4, UGT1A9, and UGT2B7, respectively, using LC/MS/MS. Incubation mixtures were prepared in a total volume of 100 μL, as follows: Pooled human liver microsomes (0.2 mg/mL for 17β-estradiol, trifluoperazine and azidothymidine; 0.1 mg/mL for propofol), 2 mM UDPGA, 25 μg/mL alamethicin, 10 mM MgCl2, 50 mM tris buffer (pH 7.4), UGT-isoform specific probe substrate (20 μM 17β-estradiol for UGT1A1, 5 μM trifluoperazine for UGT1A4, 10 μM propofol for UGT1A9, or 100 μM azidothymidine for UGT2B7), and various concentrations of corydaline (1−1000 μM). Reactions were initiated by addition of UDPGA, and incubations were carried out at 37 °C in a shaking water bath for 30 min. […]
Glucuronides produced from UGT isoform-specific substrates were respectively determined by LC/MS/MS. […] Quantification was performed by SRM of the [M+H]^+ ion for trifluoperazine glucuronide and azidothymidine glucuronide or [M−H]^− for 17β-estradiol 3-glucuronide and propofol glucuronide and the related product ion for each metabolite.
Reactions were initiated by addition of NADPH at 37 °C and stopped after 15 min by placement of the incubation tubes on ice and addition of ice-cold methanol (100 μL) containing an internal standard (2.0 μg/mL ^13C6-4-hydroxydiclofenac for diclofenac, 0.5 μg/mL d3-4-hydroxymephenytoin for mephenytoin, or 0.5 μg/mL d9-1-hydroxy-bufuralol for bufuralol). The incubation mixtures were centrifuged at 13,000 × g for 5 min, and aliquots (5 μL) of the supernatants were analyzed by LC/MS/MS. […] Aliquots (5 μL) were analyzed by LC/MS/MS. […]
(In general: Microsomes from liver hold many membrane-bound enzymes, among them those of drug oxidation.)

For the next test, the target named is T2, UGT1A4 (Homo sapiens, UniProt P22310).
T2 construct: using pooled human liver microsomes; tissue BD Gentest Co. H161; host or cells: pooled human liver microsomes
T2 sequence (P22310 29-534): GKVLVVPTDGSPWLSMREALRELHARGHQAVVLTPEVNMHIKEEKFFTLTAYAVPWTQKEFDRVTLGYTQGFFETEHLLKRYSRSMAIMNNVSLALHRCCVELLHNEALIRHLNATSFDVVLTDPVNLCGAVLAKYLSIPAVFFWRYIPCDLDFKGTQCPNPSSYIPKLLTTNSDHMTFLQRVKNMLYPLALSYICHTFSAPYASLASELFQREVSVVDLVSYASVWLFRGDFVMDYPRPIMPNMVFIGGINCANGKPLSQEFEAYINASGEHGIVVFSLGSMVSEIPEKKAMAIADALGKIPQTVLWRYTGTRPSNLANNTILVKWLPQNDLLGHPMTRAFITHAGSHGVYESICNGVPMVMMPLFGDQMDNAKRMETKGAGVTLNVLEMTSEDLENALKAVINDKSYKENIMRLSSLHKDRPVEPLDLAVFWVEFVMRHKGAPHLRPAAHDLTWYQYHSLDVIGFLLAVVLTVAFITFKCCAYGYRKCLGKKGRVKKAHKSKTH
The test can be described thus: UGT1A4 trifluoperazine N-glucuronidation inhibition in pooled human liver microsomes. The format is in vitro ADME. The note with it: pooled human liver microsomes (H161), 5 μM trifluoperazine, no inhibition at 1,000 μM of corydaline. Here is the method:
as §1, with “μM).” for “μM). Reactions were initiated by addition of UDPGA, and incubations were carried out at 37 °C in a shaking water bath for 30 min.”
Glucuronides produced from UGT isoform-specific substrates were respectively determined by LC/MS/MS. […] Quantification was performed by SRM of the [M+H]^+ ion for trifluoperazine glucuronide and azidothymidine glucuronide or [M−H]^− for 17β-estradiol 3-glucuronide and propofol glucuronide and the related product ion for each metabolite. […]

By Ki is commonly meant a measure of affinity in units of concentration, obtained from inhibition or displacement. The IC50 is the point on the concentration scale where inhibition reaches its midpoint. Compound `COc1cc2c(cc1OC)C1C(C)c3ccc(OC)c(OC)c3CN1CC2` (centres unmarked) [Corydaline, 2,3,9,10-tetramethoxy-13-methyl-5,8,13,13a-tetrahydro-6H-isoquino[3,2-a]isoquinoline] came in with a Ki at UGT1A9 (human liver microsomes, 10-30 μM propofol) of 37.3 ± 14.4 µM. On UGT1A9 (mixed competitive-noncompetitive equation, nonlinear regression), the “inhibition mode, UGT1A9 propofol glucuronidation” value was “competitive”. The compound further yielded an IC50 on UGT1A9 (pooled human liver microsomes (H161), 10 μM propofol, mean ± SD, n = 3) of 39.4 ± 6 µM. Further, the “IC50, UGT1A4 trifluoperazine N-glucuronidation” value at UGT1A4 is “not inhibited”; against UGT1A4 (listed as corydaline), “No inhibition *”.
